Laboratory results taken from paper PMC12579162, “Synthesized Depside Molecules Suppress the Progression of Colorectal Cancer by Binding VDAC1/PHB/MMP9 Being at the Crossroads of Stemness, Motility, Apoptosis, and Metabolism” (MedComm, 2025).

Tests used:
Assay type in all cases: cell-based
CSC221 cells = test: MTT cell viability, CSC221; details: Homo sapiens; 48 h, MTT assay
Procedure: (§1) Cells (3 × 10^3 cells/well) were seeded on a 96‐well plate, grown overnight, and then treated with compounds at indicated concentrations for 48 h. After incubation with MTT for 4 h at 37°C, cells were lysed with 150 µL of DMSO (Sigma–Aldrich, St. Louis, USA). Absorbance was measured at 570 nm on a microplate reader with the Gen5 software (v.2.03.1; BioTek, Winooski, VT, USA).

CaCo2 cells = test: MTT cell viability, CaCo2; details: Homo sapiens, Caco-2; 48 h, MTT assay
Procedure: as §1

DLD1 cells = test: MTT cell viability, DLD1; details: Homo sapiens, DLD-1; 48 h, MTT assay
Procedure: as §1

HCT116 cells = test: MTT cell viability, HCT116; details: Homo sapiens, HCT-116; 48 h, MTT assay
Procedure: as §1

HT29 cells = test: MTT cell viability, HT29; details: Homo sapiens, HT-29; 48 h, MTT assay
Procedure: as §1

CT26 cells = test: MTT cell viability, CT26; details: Mus musculus, 48 h, MTT assay
Procedure: as §1

SW620 cells = test: MTT cell viability, SW620; details: Homo sapiens, SW-620; 48 h, MTT assay
Procedure: as §1

BEAS-2B cells = test: MTT cell viability, BEAS-2B; details: Homo sapiens, 48 h, MTT assay
Procedure: as §1

HaCaT cells = test: MTT cell viability, HaCaT; details: Homo sapiens, 48 h, MTT assay
Procedure: as §1

HEK293T cells = test: MTT cell viability, HEK293T; details: Homo sapiens, HEK-293T; 48 h, MTT assay
Procedure: as §1

MCF10A cells = test: MTT cell viability, MCF10A; details: Homo sapiens, MCF-10A; 48 h, MTT assay
Procedure: as §1

spheroid formation = test: Spheroid formation, comparison with known MMP inhibitor (Figure S10); details: 10 µM, 10–14 days
Procedure: Monolayer cells were separated into single‐cell suspensions at around 70% confluence using a solution of trypsin. After that, the cells were added to N2‐supplemented DMEM/F12 that contained human basal fibroblast growth factor and human recombinant epidermal growth factor. Cells seeded at a density of 5 × 10^3 cells/well in ultra‐low attachment 24‐well plates (Corning Inc., Corning, NY, USA). After 10–14 days of culture, spheres were quantitated by inverted phase contrast microscopy. The relative sphere formation ability was calculated through the IMT iSolution software (IMT iSolution Inc., Northampton, NJ, USA) measuring the pixel intensity of the sphere area randomly in each plate.
Supplementary Figure S10. Comparison of the effects of novel VDAC1/PHB/MMP9 binding compounds and known MMP inhibitor on spheroid formation. Cells were exposed to the compound at 5 μM concentration of SB4 or SB5 and 10 μM of MMP inhibitor (GM 6001, ilomastat) for 10-14 days. The histogram represents spheroid formation, calculated as rate relative to vehicle-treated control, and represented as bar graphs. *p < 0.05; **p < 0.01; ***p < 0.001; NS, no significant difference between compared groups.

Compound: COc1cc(C)c(C(=O)Oc2cc(C)c(C(=O)O)c(O)c2C)c(OC)c1C [DA, diffractaic acid, reference compound]
- IC50 (CSC221 cells): 133 µM
- IC50 (CaCo2 cells): 90.5 µM
- IC50 (DLD1 cells): 64.1 µM
- IC50 (HCT116 cells): 49.1 µM
- IC50 (HT29 cells): 62.8 µM
- IC50 (CT26 cells): 46.2 µM
- IC50 (SW620 cells): 46.2 µM
- IC50 (BEAS-2B cells): 54.3 µM
- IC50 (HaCaT cells): 84.2 µM
- IC50 (HEK293T cells): 121 µM
- IC50 (MCF10A cells): 146 µM

Compound: CNC(=O)[C@H](Cc1c[nH]c2ccccc12)NC(=O)[C@@H](CC(=O)NO)CC(C)C [GM 6001, ilomastat]
- spheroid formation (spheroid formation): no effect on inhibition of spheroid formation
